Experimental findings from PubChem BioAssay AID179 (DTP/NCI, 2004) are described below.

The test system of the test is CEM cells HIV-1 protection, formazan growth assay. The test is described as follows: NCI AIDS Antiviral Assay. To be noted: for pIC50: measured here: growth of uninfected CEM cells. In short, it runs like this: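 Steps: treat uninfected and HIV-1-infected human CEM cells at five drug levels; quantify growth by soluble formazan; retest any compound reaching 50% protection; classify actives from the retest.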

pEC50, pIC50: −log10 of the molar value. Activity calls are given as the source filed them.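 The calls were made as follows: active = compounds giving half or more protection of infected cells from virus-caused growth loss, again on retest; inactive = the rest.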 Some results are limits rather than exact numbers.

For the molecule `[CH3][Hg]/[N]=C(/N)NC#N`, the outcome was inactive.
One may read the pEC50 as the negative decadic logarithm of the EC50, by convention in mol/L. As a reminder, the pIC50 is the negative decadic logarithm of the IC50, by convention in mol/L. Read a high pIC50 as a small IC50. On to `COc1ccc(CCNC(=O)[C@H]2CCCC[C@@H]2CCO)cc1OC`, for which the pEC50 was under 3.70 and the negative logarithm of the IC50 (pIC50) is under 3.70.
With `O=CN1CCN(C=O)C(O)C1O` (centres undefined), the pEC50 is under 3.70 and the pIC50 is under 3.70.
As to `O=c1cc(O)c2ccccc2[nH]1`, the pEC50 was under 3.70 and the pIC50 is under 3.70.
Take `O=C1NC(=S)N/C1=C\c1cccs1`: the pEC50 was under 3.70 and the pIC50 was 3.74.
For the molecule `CCCN=C(NNC(N)=O)C(C)=O`, the pEC50 is under 2.87 and the pIC50 was 2.96.
In the case of `COc1cc2c(c(C3C(=O)N(C)c4ccc(Br)cc43)c1OC)OCO2` (centres undefined), the pEC50 was under 3.70 and the pIC50 is under 3.70.
For the molecule `COC(=O)/C=C(/C=C1/C(C#N)=C(N)N(c2ccc(Cl)cc2)C1(C)/C(=C/C(=O)OC)C(=O)OC)C(=O)OC` (centres undefined), the pEC50 is under 3.70 and the pIC50 is 4.63.
Regarding `Cc1cc(C)c(NC(=O)c2cnccn2)c(=O)o1`, the pEC50 is under 3.70 and the pIC50 is under 3.70.
Regarding `O=C1C=Cc2c(-c3ccccc3)oc3cccc1c23`, the outcome was inactive.
As for `COC(=O)Sc1c2sc(C(=O)OC)c(C)c2n2ccccc12`, the outcome was inactive.
As to `CC(=O)N(C(C)=O)C1=C2c3ccccc3N(S(=O)(=O)c3ccccc3)C2n2c(=O)n(-c3ccccc3)c(=O)n2C1` (centres undefined), the pEC50 is under 5.03 and the pIC50 was under 5.03.
On to `O=C(CC(=O)N(C(=O)c1ccccc1)c1ccc(Cl)cc1)N/N=C\c1ccccc1O`, for which the pEC50 is under 3.70 and the pIC50 is under 3.70.
Turning to `CCOC/N=C(/N)NC#N`, the pEC50 is under 3.20 and the pIC50 was under 3.20.
As to `Cc1cc(N(CCC#N)CCC#N)ccc1/C=C(\NC(=O)/C=C/c1ccccc1)C(=O)Nc1ccc(Cl)cc1`, the pEC50 is under 4.87 and the pIC50 was under 4.87.
Regarding `COc1ccc(C2c3cc4c(cc3OC(O)(CO)C2C(=O)O)OCO4)c(OC)c1OC` (centres undefined) (tested in a mixture with another compound), the outcome was inactive.
Turning to `CC(=O)Oc1c(Br)ccc2cc(C(Br)Br)c(C(=O)c3ccccc3)nc12`, the pEC50 is under 5.30 and the negative logarithm of the IC50 (pIC50) was under 5.30.
For `c1ccc(CN(Cc2ccccn2)Cn2cccn2)nc1`, the outcome was inactive.
`COc1cc(/C=C(\OC(C)=O)c2ccc3c(c2)OCO3)cc(OC)c1OC`: the pEC50 was under 3.90 and the pIC50 was 4.28.
For the molecule `CC(CCNC(=O)c1ccccc1)(CCNC(=O)c1ccccc1)[N+](=O)[O-]`, the pEC50 was under 3.70 and the pIC50 was under 3.70.
For the molecule `CSC(=O)/C=C1\SS/C(=C\C(=O)SC)S1`, the pEC50 is under 3.70 and the pIC50 was 5.51.
For the molecule `O=C(N1CCN(CCO)CC1)N1c2ccccc2Sc2ccccc21`, the pEC50 was under 3.70 and the pIC50 was 3.93.
In the case of `Cn1c(=O)c2c(nc3n(CC(O)CCl)c(=O)ccn23)n(C)c1=O` (centres undefined), the pEC50 was under 3.70 and the pIC50 was 4.65.
With `C#C[C@]1(O)CCC2C3CCc4cc(Oc5nc(F)nc(-c6c7cc8ccccc8cc7c7n6CCS7)n5)ccc4C3CCC21C` (some centres undefined), the pEC50 is under 3.70 and the pIC50 was 4.60.
On the same counts, the results for `COc1cc(/C=C2\CCC(C)C3=C2NC(=S)NC3c2cc(OC)c(OC)c(OC)c2)cc(OC)c1OC` (centres undefined) are under 3.70 and 4.49.
The like results for `CCCC(=N\N=C(N)N)/C(CCC)=N/N=C(N)N` were, in that order, under 3.73 and under 3.73.
For `CCOC(=O)/C(C#N)=C/c1cccc(OC)c1`, the pEC50 is under 3.81 and the pIC50 was under 3.81.
As to `CN1C(=O)N/C(=N/c2nc(Cc3ccc4c(c3)OCO4)cn2C)C1=O`, the pEC50 is under 5.80 and the pIC50 is under 5.80.
For the molecule `Nc1nc(N)c2cc(-c3ccccc3)cnc2n1`, the pEC50 is under 3.70 and the pIC50 was 4.80.
With `CCOC(=O)NC(C(F)(F)F)(C(F)(F)F)P(=O)(OCC)OCC`, the pEC50 is under 3.70 and the negative logarithm of the IC50 (pIC50) is 4.94.
Regarding `C=C(C)C(O)C(O)c1c(OC)ccc2ccc(=O)oc12` (centres undefined), the pEC50 is under 3.76 and the pIC50 was under 3.76.
With `CCOc1cc2c(cnc3c4cc(OC)c(OC)cc4ccc23)cc1OC`, the pEC50 is under 4.56 and the pIC50 was under 4.56.
Turning to `Cc1ccc(C2=C/C(=C/c3ccc(N(CCC#N)CCC#N)cc3)C(=O)O2)cc1`, the pEC50 was under 3.70 and the pIC50 is under 3.70.
As for `O=C1CNC(=O)c2c(ncn2C2OC(CO)C(O)C2O)N1` (centres undefined), the pEC50 was under 3.67 and the pIC50 is under 3.67.
Take `Nc1ncnc2c1ncn2C1CCC(COP(=O)(O)O)O1` (centres undefined): the pEC50 is 4.70 and the pIC50 was under 3.70.
`Nn1c(SCc2nc3ccccc3[nH]2)nnc1-c1ccccc1`: the pEC50 was under 3.70 and the pIC50 is under 3.70.
`O=C1C(=Cc2ccccc2[N+](=O)[O-])N=C(c2ccccc2)N1n1c(-c2ccccc2)nc2ccccc2c1=O`: the pEC50 is under 3.70 and the pIC50 was 4.53.
Take `Cc1cccc2c1[nH]c1[nH]c(=O)[nH]c(=O)c12`: the pEC50 is under 3.70 and the pIC50 is 3.82.
Turning to `CNCc1cc(OC)ccc1-c1ccc(OC)c(OC)c1OC`, the pEC50 is under 3.15 and the pIC50 was 3.98.
Take `COc1ccc(-n2nc3c(N)nnc-3nc2-c2ccccc2)cc1`: the pEC50 was under 5.39 and the negative-log IC50 (pIC50) is under 5.39.
On to `COc1ccc2[nH]c3c(c2c1)CC(=S)N1CCCC(CC3=O)C1` (centres undefined), for which the pEC50 was under 3.70 and the negative-log IC50 (pIC50) was 4.21.
Consider `CN=C(Nn1cnnc1)OC`, for which the pEC50 is under 3.70 and the negative logarithm of the IC50 (pIC50) is under 3.70.
As to `CC1=C(C(=O)Nc2ccccc2C)C(c2ccc(Cl)cc2)C(C(=O)Nc2ccccc2C)=C(C)N1`, the pEC50 is under 5.53 and the pIC50 was under 5.53.
As to `O=C(/C=C/c1ccccc1Br)c1ccccc1`, the pEC50 was under 3.70 and the pIC50 is 5.50.
On to `CN(C)c1ccc2cc3ccc(N(C)C)cc3nc2c1`, for which the pEC50 is under 3.70 and the negative logarithm of the IC50 (pIC50) was 6.51.
For `COc1ccc(Nc2nc3cc(C(F)(F)F)ccc3nc2-c2ccccc2)cc1OC`, the pEC50 was under 4.51 and the pIC50 is under 4.51.
In the case of `CC(=O)Oc1cccc2c(/C=N/NC(N)=S)ncc(C)c12`, the pEC50 is under 3.70 and the pIC50 is 5.91.
For `O=C1CCCCCCCCCC(=O)Nc2ccccc2-c2ccccc2N1`, the outcome was inactive.
On to `CCOC(C)C(=O)OC[C@@H](C(=O)OC1C[C@@H]2[C@@H]3O[C@@H]3[C@H](C1)[N+]2(C)C)c1ccccc1` (some centres undefined), for which the pEC50 is under 3.70 and the pIC50 is under 3.70.
Consider `CC1(CC(=O)OC(C#C[Si](C)(C)C)Cc2ccccc2)OCCO1` (centres undefined), for which the pEC50 was under 3.70 and the pIC50 was 3.99.
As for `O=[N+]([O-])c1cccc(-c2cn3c(n2)Cc2ccccc2C3)c1`, the pEC50 is under 3.70 and the pIC50 is 4.47.
`COc1ccccc1NC(=O)O/N=C(/Cl)C(C)C`: the pEC50 was under 3.70 and the pIC50 was 5.13.
Take `CCCCc1ccc(N=C(N)N)cc1`: the pEC50 was under 3.70 and the pIC50 was 4.54.
With `C=CCOC1=C2CC[C@H](O)[C@@]2(C)CCC1=O`, the outcome was inactive.
`NC(=O)c1ccccc1NC(=O)C(=O)C(C(=O)c1ccc(Cl)c(Cl)c1)C1OC(=O)c2ccccc21` (centres undefined): the pEC50 is under 3.47 and the pIC50 was 4.67.
For `CC1(C)CC(=O)c2c(oc3cc(O)c(O)cc23)C1`, the outcome was inactive.
In the case of `O=C(C(/C=N/C(=S)NC1C(=O)Nc2ccccc21)=C(/O)c1ccccc1)c1ccccc1` (centres undefined), the pEC50 was under 3.70 and the pIC50 was 4.38.
Consider `O=C1N(c2ccccc2)SN2C3C=CC(C4CC43)N12` (centres undefined), for which the pEC50 is under 3.74 and the pIC50 is under 3.74.
As for `COc1ccc(/C=C\c2cc(OC)c(OC)c(OC)c2)cc1O`, the pEC50 was under 3.67 and the pIC50 was 7.16.
On the same counts, the results for `COc1ccc(OC)c(NCC(=O)Nn2cnc3ccc(S(=O)(=O)Nc4cc(OC)ccc4OC)cc3c2=O)c1` are under 3.70 and 4.47.
Take `NCCCCCNOCCCN`: the pEC50 is under 3.70 and the negative-log IC50 (pIC50) was 3.88.
The like results for `O=C1c2sc(-c3ccc(Cl)cc3)cc2-n2cccc21` were, in that order, under 3.82 and under 3.82.
As to `Cc1c2n(c3ccccc13)CC1C2N(C)OC1(C)C` (centres undefined), the pEC50 was under 3.58 and the pIC50 is under 3.58.
With `CC(O)C1OC(n2cnc3c(=O)[nH]c(N)nc32)C(O)C1O` (centres undefined), the pEC50 was under 3.77 and the pIC50 was under 3.77.
Turning to `COc1cc(Cc2ccc3c(c2C#N)N(C)c2ccccc2S3)cc(OC)c1OC`, the pEC50 was under 3.70 and the pIC50 is 5.44.
The like results for `CCOC(=O)c1cnc2c(ccc3ncccc32)c1NCCCN(CC)CC` were, in that order, under 4.16 and 5.02.
As to `CC(C)=CCc1c(-c2ccc(OC3OC(CO)C(O)C(O)C3O)cc2O)oc2c3c(cc(O)c2c1=O)OC(C)(C)C=C3` (centres undefined), the pEC50 was under 4.94 and the pIC50 was under 4.94.
In the case of `CCOC(=O)c1ccc(N(CC/C(CN)=N/NC(N)=O)C(C)=O)cc1`, the pEC50 is under 3.19 and the pIC50 was 3.44.
Take `CN(C)c1ccc(/C=C(\C#N)c2ccc(Cl)cc2)c(Cl)c1`: the pEC50 is under 4.30 and the pIC50 was 5.31.
As to `CCOC(=O)[C@@]12C[C@](/C=C/OC)(O[Si](C)(C)C)[C@@]13c1cc(OC)c(OC)cc1CCN3C(=O)C2=O`, the pEC50 is under 3.70 and the pIC50 is under 3.70.
As to `C/C=C(\C1CC2c3[nH]c4ccccc4c3CCN2C(=O)C1C(=O)OCC)[Si](C)(C)C` (centres undefined), the pEC50 is under 4.91 and the pIC50 is under 4.91.
As to `O=C(O)CCOCCCCCCCCCl`, the outcome was inactive.
Turning to `O=CC1=C(C(=O)OC(c2ccccc2)c2ccccc2)N2C(=O)[C@@H](NC(=O)Cc3cccs3)[C@H]2SC1`, the pEC50 is under 3.70 and the pIC50 was 3.91.
On the same counts, the results for `CN1C(=O)[C@@H]2[C@@H]3c4ccccc4N[C@@H]3c3[nH]c4ccccc4c3[C@@H]2C1=O` are under 3.70 and 4.09.
